{"source": "ChEMBL document CHEMBL3991601", "about": "“The target landscape of clinical kinase drugs” (Science, 2017)", "key": {"[1]": {"target": "T1, EKC/KEOPS complex subunit TP53RK (Homo sapiens, UniProt Q96S44)", "T1 sequence (Q96S44 whole entry)": "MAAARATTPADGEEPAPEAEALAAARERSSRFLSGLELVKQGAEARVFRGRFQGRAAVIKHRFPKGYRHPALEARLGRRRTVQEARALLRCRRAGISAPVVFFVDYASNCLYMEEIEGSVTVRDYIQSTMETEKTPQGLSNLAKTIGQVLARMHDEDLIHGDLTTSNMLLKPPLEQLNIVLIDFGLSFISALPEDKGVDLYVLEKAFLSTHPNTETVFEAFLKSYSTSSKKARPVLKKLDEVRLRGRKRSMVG"}, "[2]": {"target": "Protein kinase C alpha type (Homo sapiens, UniProt P17252)"}, "[3]": {"target": "T2, Serine/threonine-protein kinase Nek9 (Homo sapiens, UniProt Q8TD19)", "T2 sequence (Q8TD19 whole entry)": "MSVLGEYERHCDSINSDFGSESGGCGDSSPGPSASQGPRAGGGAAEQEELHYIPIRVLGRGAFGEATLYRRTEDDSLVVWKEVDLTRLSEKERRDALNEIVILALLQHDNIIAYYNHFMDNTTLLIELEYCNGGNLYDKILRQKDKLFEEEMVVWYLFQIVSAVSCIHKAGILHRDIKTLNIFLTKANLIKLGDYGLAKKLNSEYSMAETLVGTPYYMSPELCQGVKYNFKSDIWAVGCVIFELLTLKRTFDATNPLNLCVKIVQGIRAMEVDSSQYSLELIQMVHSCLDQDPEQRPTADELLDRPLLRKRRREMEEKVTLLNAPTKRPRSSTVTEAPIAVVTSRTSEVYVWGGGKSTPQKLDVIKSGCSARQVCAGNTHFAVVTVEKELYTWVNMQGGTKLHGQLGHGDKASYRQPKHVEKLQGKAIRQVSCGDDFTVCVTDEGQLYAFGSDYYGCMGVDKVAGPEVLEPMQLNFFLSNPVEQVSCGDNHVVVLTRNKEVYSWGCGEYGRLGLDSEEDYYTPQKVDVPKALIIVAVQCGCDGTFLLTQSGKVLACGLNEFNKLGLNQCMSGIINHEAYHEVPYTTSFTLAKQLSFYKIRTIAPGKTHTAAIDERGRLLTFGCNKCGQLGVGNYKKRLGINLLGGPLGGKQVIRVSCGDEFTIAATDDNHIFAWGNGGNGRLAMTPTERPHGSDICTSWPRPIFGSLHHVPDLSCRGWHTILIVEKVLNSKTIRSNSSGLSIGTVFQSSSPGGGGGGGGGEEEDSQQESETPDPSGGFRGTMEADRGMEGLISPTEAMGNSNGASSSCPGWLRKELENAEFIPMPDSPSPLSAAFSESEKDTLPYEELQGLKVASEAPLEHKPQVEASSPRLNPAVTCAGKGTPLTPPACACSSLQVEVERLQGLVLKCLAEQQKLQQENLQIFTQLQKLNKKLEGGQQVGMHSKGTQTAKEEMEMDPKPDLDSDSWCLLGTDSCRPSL"}, "[4]": {"target": "Hepatocyte growth factor receptor (Homo sapiens, UniProt P08581)", "sequence (P08581 whole entry)": "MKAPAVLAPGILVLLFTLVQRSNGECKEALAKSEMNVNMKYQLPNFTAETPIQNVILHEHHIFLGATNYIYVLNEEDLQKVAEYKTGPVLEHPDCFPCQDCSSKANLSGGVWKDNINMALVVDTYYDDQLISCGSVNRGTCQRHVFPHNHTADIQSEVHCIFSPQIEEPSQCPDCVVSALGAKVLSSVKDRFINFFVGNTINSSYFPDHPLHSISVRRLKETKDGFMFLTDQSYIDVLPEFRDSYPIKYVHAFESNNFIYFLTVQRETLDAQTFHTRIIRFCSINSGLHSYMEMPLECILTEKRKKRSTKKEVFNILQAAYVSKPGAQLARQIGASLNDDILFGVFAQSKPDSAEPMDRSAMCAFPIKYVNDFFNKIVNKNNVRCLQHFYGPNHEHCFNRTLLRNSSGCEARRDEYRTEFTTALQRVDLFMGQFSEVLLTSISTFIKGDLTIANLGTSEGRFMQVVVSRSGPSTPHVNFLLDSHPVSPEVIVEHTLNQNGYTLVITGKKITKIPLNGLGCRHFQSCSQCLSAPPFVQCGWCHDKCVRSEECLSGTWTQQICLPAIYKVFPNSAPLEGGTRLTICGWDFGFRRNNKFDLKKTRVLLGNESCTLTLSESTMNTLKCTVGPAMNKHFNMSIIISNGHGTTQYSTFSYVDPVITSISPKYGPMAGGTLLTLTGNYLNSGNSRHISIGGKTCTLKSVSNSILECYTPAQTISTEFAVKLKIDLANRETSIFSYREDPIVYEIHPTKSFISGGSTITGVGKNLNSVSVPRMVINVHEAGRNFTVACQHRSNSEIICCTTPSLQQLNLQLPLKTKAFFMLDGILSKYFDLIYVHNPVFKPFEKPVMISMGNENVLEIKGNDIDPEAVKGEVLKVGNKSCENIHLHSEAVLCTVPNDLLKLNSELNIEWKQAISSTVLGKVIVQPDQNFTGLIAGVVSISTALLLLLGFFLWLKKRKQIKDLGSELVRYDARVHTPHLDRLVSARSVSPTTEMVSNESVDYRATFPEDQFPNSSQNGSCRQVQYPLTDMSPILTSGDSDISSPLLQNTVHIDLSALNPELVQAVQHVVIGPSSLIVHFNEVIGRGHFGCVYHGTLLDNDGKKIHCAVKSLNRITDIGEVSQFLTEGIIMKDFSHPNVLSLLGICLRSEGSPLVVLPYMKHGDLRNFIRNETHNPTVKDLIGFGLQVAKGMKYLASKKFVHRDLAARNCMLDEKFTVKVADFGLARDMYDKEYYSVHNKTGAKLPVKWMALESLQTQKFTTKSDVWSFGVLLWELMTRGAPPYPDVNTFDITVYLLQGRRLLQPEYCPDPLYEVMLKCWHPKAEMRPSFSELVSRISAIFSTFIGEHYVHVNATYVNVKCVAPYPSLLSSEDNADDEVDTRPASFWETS"}, "[5]": {"target": "5'-AMP-activated protein kinase catalytic subunit alpha-1 (Homo sapiens, UniProt Q13131)", "sequence (Q13131 whole entry)": "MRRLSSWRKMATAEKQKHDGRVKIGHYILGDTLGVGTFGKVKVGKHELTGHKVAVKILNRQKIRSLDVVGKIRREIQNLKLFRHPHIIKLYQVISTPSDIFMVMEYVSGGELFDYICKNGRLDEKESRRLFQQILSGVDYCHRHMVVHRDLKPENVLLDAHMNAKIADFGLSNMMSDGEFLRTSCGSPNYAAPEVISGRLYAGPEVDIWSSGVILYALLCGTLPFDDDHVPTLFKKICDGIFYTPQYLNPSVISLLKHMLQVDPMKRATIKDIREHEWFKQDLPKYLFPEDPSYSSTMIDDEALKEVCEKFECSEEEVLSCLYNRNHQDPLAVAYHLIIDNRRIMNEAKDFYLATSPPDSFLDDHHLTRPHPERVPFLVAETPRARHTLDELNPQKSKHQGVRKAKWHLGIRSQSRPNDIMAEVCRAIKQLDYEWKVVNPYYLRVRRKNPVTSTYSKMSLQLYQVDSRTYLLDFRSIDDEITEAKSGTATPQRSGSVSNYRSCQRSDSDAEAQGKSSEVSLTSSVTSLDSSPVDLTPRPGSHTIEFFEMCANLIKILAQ"}, "Septin-9": {"target": "T3, Septin-9 (Homo sapiens, UniProt Q9UHD8)", "T3 sequence (Q9UHD8 whole entry)": "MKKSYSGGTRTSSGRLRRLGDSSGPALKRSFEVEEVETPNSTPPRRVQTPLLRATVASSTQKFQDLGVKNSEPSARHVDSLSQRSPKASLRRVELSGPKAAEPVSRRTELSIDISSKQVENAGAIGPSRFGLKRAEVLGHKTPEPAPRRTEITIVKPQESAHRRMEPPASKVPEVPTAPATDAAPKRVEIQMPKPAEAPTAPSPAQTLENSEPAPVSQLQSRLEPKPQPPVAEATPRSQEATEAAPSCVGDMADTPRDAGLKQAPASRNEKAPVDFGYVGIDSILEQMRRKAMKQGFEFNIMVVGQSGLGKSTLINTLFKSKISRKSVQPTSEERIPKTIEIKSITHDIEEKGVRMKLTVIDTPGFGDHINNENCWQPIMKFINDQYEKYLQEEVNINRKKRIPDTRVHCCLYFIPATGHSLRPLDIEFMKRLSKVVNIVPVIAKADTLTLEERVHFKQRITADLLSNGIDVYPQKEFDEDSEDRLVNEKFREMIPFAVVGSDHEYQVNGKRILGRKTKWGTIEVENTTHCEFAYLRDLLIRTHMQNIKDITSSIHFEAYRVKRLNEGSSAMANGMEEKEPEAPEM"}, "[6]": {"target": "T4, Mitogen-activated protein kinase kinase kinase kinase 3 (Homo sapiens, UniProt Q8IVH8)", "T4 sequence (Q8IVH8 whole entry)": "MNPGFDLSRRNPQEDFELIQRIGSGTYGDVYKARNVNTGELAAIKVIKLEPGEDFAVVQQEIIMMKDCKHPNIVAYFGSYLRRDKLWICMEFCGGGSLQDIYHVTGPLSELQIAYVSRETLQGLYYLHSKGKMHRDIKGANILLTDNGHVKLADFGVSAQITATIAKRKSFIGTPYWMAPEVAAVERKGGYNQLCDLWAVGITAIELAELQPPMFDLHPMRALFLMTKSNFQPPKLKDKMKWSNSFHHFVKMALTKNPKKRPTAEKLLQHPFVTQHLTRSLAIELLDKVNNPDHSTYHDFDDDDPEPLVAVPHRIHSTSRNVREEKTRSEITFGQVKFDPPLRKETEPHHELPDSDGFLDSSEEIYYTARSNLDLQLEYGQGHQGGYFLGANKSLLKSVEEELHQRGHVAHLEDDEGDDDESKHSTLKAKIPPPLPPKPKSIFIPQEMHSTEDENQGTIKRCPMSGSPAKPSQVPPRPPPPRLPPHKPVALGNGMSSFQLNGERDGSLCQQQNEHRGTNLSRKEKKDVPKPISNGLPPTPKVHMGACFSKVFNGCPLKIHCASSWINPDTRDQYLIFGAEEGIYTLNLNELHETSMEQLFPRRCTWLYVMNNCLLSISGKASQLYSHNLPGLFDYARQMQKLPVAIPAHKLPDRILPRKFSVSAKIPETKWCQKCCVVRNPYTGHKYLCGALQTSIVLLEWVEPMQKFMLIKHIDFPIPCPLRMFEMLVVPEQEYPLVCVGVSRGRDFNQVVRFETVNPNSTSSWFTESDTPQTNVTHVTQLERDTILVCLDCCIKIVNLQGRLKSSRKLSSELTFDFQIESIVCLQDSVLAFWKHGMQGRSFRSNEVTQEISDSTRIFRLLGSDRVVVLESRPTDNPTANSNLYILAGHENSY"}, "[7]": {"target": "Tyrosine-protein kinase FRK (Homo sapiens, UniProt P42685)", "sequence (P42685 whole entry)": "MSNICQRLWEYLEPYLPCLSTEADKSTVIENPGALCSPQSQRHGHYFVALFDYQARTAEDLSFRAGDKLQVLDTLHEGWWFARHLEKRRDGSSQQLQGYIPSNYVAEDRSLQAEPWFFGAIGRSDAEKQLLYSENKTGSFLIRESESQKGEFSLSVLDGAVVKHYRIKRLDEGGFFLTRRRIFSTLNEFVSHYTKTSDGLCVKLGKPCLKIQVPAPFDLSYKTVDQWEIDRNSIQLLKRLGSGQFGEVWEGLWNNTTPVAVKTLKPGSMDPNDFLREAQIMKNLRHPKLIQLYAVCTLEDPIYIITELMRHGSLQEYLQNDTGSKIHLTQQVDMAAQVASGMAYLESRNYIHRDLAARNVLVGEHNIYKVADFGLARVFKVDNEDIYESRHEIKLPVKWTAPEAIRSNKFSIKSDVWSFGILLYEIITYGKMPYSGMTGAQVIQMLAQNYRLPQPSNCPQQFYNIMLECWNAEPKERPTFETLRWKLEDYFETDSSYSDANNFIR"}, "[8]": {"target": "RAC-gamma serine/threonine-protein kinase (Homo sapiens, UniProt Q9Y243)", "sequence (Q9Y243 whole entry)": "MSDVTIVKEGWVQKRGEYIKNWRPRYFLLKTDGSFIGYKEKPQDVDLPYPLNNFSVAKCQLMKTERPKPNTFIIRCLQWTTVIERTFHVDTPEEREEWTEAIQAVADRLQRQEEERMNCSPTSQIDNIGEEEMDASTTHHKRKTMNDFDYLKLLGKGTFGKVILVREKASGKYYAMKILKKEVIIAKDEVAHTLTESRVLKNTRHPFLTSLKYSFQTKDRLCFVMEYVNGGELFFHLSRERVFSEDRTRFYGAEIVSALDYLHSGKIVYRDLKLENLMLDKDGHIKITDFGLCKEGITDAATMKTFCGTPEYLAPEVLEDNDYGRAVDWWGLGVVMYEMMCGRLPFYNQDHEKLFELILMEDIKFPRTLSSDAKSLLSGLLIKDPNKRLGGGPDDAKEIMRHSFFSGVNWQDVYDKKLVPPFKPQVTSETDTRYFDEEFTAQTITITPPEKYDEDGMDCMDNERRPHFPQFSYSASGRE"}}, "note": "Activity calls are given as the source filed them. For most assays here, no stated cut-off is given here; in the data, actives have a measured Kd and inactives only a lower limit.", "data": [{"smiles": "C[C@@H](NC(=O)c1ncnc(N)c1Cl)c1ncc(C(=O)Nc2cc(C(F)(F)F)c(Cl)cn2)s1", "note": "[TOVORAFENIB]", "values": [{"measurement": "Kd", "setting": "[1]", "value": "> 30 µM (inactive)"}, {"measurement": "Kd", "setting": "[2]", "value": "> 30 µM (inactive)"}, {"measurement": "Kd", "setting": "[3]", "value": "> 30 µM (inactive)"}, {"measurement": "Kd", "setting": "[4]", "value": "> 30 µM (inactive)"}, {"measurement": "Kd", "setting": "[5]", "value": "> 30 µM (inactive)"}, {"measurement": "Kd", "setting": "Septin-9", "value": "> 30 µM (inactive)"}, {"measurement": "Kd", "setting": "[6]", "value": "> 30 µM (inactive)"}, {"measurement": "Kd", "setting": "[7]", "value": "0.172 µM (active)"}, {"measurement": "Kd", "setting": "[8]", "value": "> 30 µM (inactive)"}]}, {"smiles": "NC(=O)Nc1cc(-c2cccc(F)c2)sc1C(=O)N[C@H]1CCCNC1", "note": "[AZD-7762]", "values": [{"measurement": "Kd", "setting": "[1]", "value": "> 30 µM (inactive)"}, {"measurement": "Kd", "setting": "[2]", "value": "> 30 µM (inactive)"}, {"measurement": "Kd", "setting": "[3]", "value": "> 30 µM (inactive)"}, {"measurement": "Kd", "setting": "[4]", "value": "> 30 µM (inactive)"}, {"measurement": "Kd", "setting": "[5]", "value": "0.762 µM (active)"}, {"measurement": "Kd", "setting": "Septin-9", "value": "> 30 µM (inactive)"}, {"measurement": "Kd", "setting": "[6]", "value": "0.363 µM (active)"}, {"measurement": "Kd", "setting": "[7]", "value": "1.21 µM (active)"}, {"measurement": "Kd", "setting": "[8]", "value": "> 30 µM (inactive)"}]}, {"smiles": "Cn1cc(-c2cnn3c(N)c(Br)c([C@@H]4CCCNC4)nc23)cn1", "note": "[SCH-900776]", "values": [{"measurement": "Kd", "setting": "[1]", "value": "> 30 µM (inactive)"}, {"measurement": "Kd", "setting": "[2]", "value": "> 30 µM (inactive)"}, {"measurement": "Kd", "setting": "[3]", "value": "> 30 µM (inactive)"}, {"measurement": "Kd", "setting": "[4]", "value": "> 30 µM (inactive)"}, {"measurement": "Kd", "setting": "[5]", "value": "> 30 µM (inactive)"}, {"measurement": "Kd", "setting": "Septin-9", "value": "> 30 µM (inactive)"}, {"measurement": "Kd", "setting": "[6]", "value": "> 30 µM (inactive)"}, {"measurement": "Kd", "setting": "[7]", "value": "> 30 µM (inactive)"}, {"measurement": "Kd", "setting": "[8]", "value": "> 30 µM (inactive)"}]}, {"smiles": "CCn1c(C(=O)N(C2CC2)C2CC2)cc2c3c(ncn3C)c(Nc3cc(C)n(C)n3)nc21", "note": "[BMS-911543]", "values": [{"measurement": "Kd", "setting": "[1]", "value": "> 30 µM (inactive)"}, {"measurement": "Kd", "setting": "[2]", "value": "> 30 µM (inactive)"}, {"measurement": "Kd", "setting": "[3]", "value": "> 30 µM (inactive)"}, {"measurement": "Kd", "setting": "[4]", "value": "> 30 µM (inactive)"}, {"measurement": "Kd", "setting": "[5]", "value": "> 30 µM (inactive)"}, {"measurement": "Kd", "setting": "Septin-9", "value": "> 30 µM (inactive)"}, {"measurement": "Kd", "setting": "[6]", "value": "> 30 µM (inactive)"}, {"measurement": "Kd", "setting": "[7]", "value": "> 30 µM (inactive)"}, {"measurement": "Kd", "setting": "[8]", "value": "> 30 µM (inactive)"}]}, {"smiles": "FC(F)(F)c1ccc(/C=C/c2nc(COc3ccc(CCCCn4ccnn4)cc3)co2)cc1", "note": "[MUBRITINIB]", "values": [{"measurement": "Kd", "setting": "[1]", "value": "> 30 µM (inactive)"}, {"measurement": "Kd", "setting": "[2]", "value": "> 30 µM (inactive)"}, {"measurement": "Kd", "setting": "[3]", "value": "> 30 µM (inactive)"}, {"measurement": "Kd", "setting": "[4]", "value": "> 30 µM (inactive)"}, {"measurement": "Kd", "setting": "[5]", "value": "> 30 µM (inactive)"}, {"measurement": "Kd", "setting": "Septin-9", "value": "> 30 µM (inactive)"}, {"measurement": "Kd", "setting": "[6]", "value": "> 30 µM (inactive)"}, {"measurement": "Kd", "setting": "[7]", "value": "> 30 µM (inactive)"}, {"measurement": "Kd", "setting": "[8]", "value": "> 30 µM (inactive)"}]}]}
